According to the OPERA property sets (Mansouri et al. 2018):

| SMILES | logP |
| --- | --- |
| Cc1nc(Cl)c(C)[n+]([O-])c1Cl | 1.08 |
| COc1ccccc1Cc1cnc(-c2ccccc2)c(-c2ccccc2)n1 | 5.18 |
| c1ccc(-c2nccnc2-c2ccccc2)cc1 | 3.19 |
| COc1ccc(-c2ncc(OC)nc2-c2ccc(OC)cc2)cc1 | 4.47 |
| COc1ccc(-c2ncc(Cl)nc2-c2ccc(OC)cc2)cc1 | 4.3 |
| COc1ccc(-c2ncc(C#N)nc2-c2ccc(OC)cc2)cc1 | 3.7 |
| COc1ccc(-c2ncc(C)nc2-c2ccc(OC)cc2)cc1 | 3.66 |
| COc1cnc(-c2ccccc2)c(-c2ccccc2)n1 | 4.21 |
| COc1cccc(Cc2cnc(-c3ccccc3)c(-c3ccccc3)n2)c1 | 5.2 |
| Cc1nc(-c2ccccc2)cnc1-c1ccccc1 | 4.28 |
| CCc1nc(CC)c(-c2ccccc2)nc1-c1ccccc1 | 4.83 |
| COc1ccc(-c2nccnc2-c2ccc(OC)cc2)cc1 | 3.42 |
| CCc1cnc(-c2ccc(OC)cc2)c(-c2ccc(OC)cc2)n1 | 4.22 |
| Cc1cnc(-c2ccc(F)cc2)c(-c2ccc(F)cc2)n1 | 3.75 |
| COc1ccc(-c2nc(C)c(C)nc2-c2ccc(OC)cc2)cc1 | 4.1 |
| Cc1cnc(-c2ccc(C#N)cc2)c(-c2ccc(C#N)cc2)n1 | 2.52 |
| [O-][n+]1cc(Cl)nc(-c2ccc(Cl)cc2)c1-c1ccc(Cl)cc1 | 3.66 |
| CC(C)c1cnc(-c2ccccc2)c(-c2ccccc2)n1 | 4.71 |
| Cc1ncc(-c2ccccc2)nc1-c1ccccc1 | 4.29 |
| Cc1ccc(-c2nccnc2-c2ccc(C)cc2)cc1 | 4.1 |
| Clc1cnc(-c2ccccc2)c(-c2ccccc2)n1 | 4.05 |

Next, values leading:

| logP | SMILES |
| --- | --- |
| 4.66 | CCc1ncc(-c2ccccc2)nc1-c1ccccc1 |
| 2.4 | Cc1nc(Cl)c(C)nc1Cl |
| 5 | CCOc1cnc(-c2ccc(OC)cc2)c(-c2ccc(OC)cc2)n1 |
| 0.44 | Cc1c[n+]([O-])c(C)c(Cl)n1 |
| 3.41 | COC(=O)c1cnc(-c2ccc(OC)cc2)c(-c2ccc(OC)cc2)n1 |
| 4.73 | CCOc1cnc(-c2ccccc2)c(-c2ccccc2)n1 |
| 2.07 | c1ccc(-c2cnccn2)cc1 |
| 3.52 | Cc1cnc(-c2ccccc2)c(-c2ccccc2)n1 |
| 0.19 | Cc1ncc(C)[n+]([O-])c1Cl |
| 2.24 | COc1ccc(-c2cnccn2)cc1 |
| 3.41 | [O-][n+]1ccnc(-c2ccc(Br)cc2)c1-c1ccc(Br)cc1 |
